Laboratory results: patent US10294202B2, “Pyrrolidinones as herbicides” (FMC Corporation, priority 2013, dated 2019)

What was measured:
foxtail, giant = experiment: Test C pre-/postemergence herbicide test; format: in vivo, Setaria faberii
Procedure, shortened: (§1)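 Greenhouse plants scored visually against untreated controls 13–15 days after treatment, 0 = no effect, 100 = complete control. Test chemicals in a non-phytotoxic solvent with surfactant were applied either to soil (loam/sand) at planting or to foliage of 1- to 4-leaf plants, 2–18 cm tall.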

lambsquarters = experiment: Test C pre-/postemergence herbicide test; format: in vivo, Chenopodium album
Procedure, shortened: as §1

giant foxtail = experiment: Test A pre-/postemergence herbicide test; format: in vivo, Setaria faberii
Procedure, shortened: (§2)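 Visual 0–100 ratings (100 = complete control) made about 10 days after treatment, greenhouse-held plants compared with untreated controls. Treatments: postemergence sprays on one- to two-leaf plants (2–10 cm tall) and preemergence directed soil sprays after planting in loam–sand, chemicals formulated in non-phytotoxic solvent containing surfactant.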

pigweed = experiment: Test C pre-/postemergence herbicide test; format: in vivo, Amaranthus retroflexus
Procedure, shortened: as §1

galium = experiment: Test C pre-/postemergence herbicide test; format: in vivo, Galium aparine; details: Preemergence; for Plant response rating, Galium: 125 g ai/ha; for Plant response rating (scale of 0 to 100), Galium: 250 g ai/ha
Procedure, shortened: as §1

wheat (winter wheat) = experiment: Test C pre-/postemergence herbicide test; format: in vivo, Triticum aestivum
Procedure, shortened: as §1

barnyardgrass = experiment: Test C pre-/postemergence herbicide test; format: in vivo, Echinochloa crus-galli
Procedure, shortened: as §1

morningglory = experiment: Test C pre-/postemergence herbicide test; format: in vivo, Ipomoea coccinea
Procedure, shortened: as §1

johnsongrass = experiment: Test C pre-/postemergence herbicide test; format: in vivo, Sorghum halepense
Procedure, shortened: as §1

wheat = experiment: Test A pre-/postemergence herbicide test; format: in vivo, Triticum aestivum
Procedure, shortened: as §2

[1] = Postemergence, 31 g ai/ha, scale 0 to 100 (0 no effect, 100 complete control)
[2] = Postemergence, 62 g ai/ha, scale 0 (no effect) to 100 (complete control)
[3] = Postemergence, 125 g ai/ha, scale 0 to 100 (0 no effect, 100 complete control)
[4] = Postemergence, 250 g ai/ha, scale 0 to 100 (0 no effect, 100 complete control)
[5] = Preemergence, 31 g ai/ha, scale 0 to 100, 0 is no effect and 100 is complete control
[6] = Preemergence, 62 g ai/ha, scale 0 to 100 (0 no effect, 100 complete control)
[7] = Preemergence, 125 g ai/ha, scale 0 to 100
[8] = Postemergence, 125 g ai/ha, visual rating on 0 to 100 scale (0 no effect, 100 complete control), approx. 10 days
[9] = Postemergence, 500 g ai/ha, 0 to 100 scale (0 no effect, 100 complete control)
[10] = Preemergence, 125 g ai/ha, 0 to 100 scale where 0 is no effect and 100 is complete control
[11] = Preemergence, 500 g ai/ha, visual rating on 0 to 100 scale (0 no effect, 100 complete control)
[12] = 31 g ai/ha, scale 0 to 100, 0 is no effect and 100 is complete control
[13] = 62 g ai/ha, scale 0 to 100 (0 no effect, 100 complete control)
[14] = Preemergence, 125 g ai/ha, scale 0 to 100 (0 no effect, 100 complete control)
[15] = Postemergence, 125 g ai/ha, 0 to 100 scale, 0 is no effect, 100 is complete control
[16] = preemergence, 500 g ai/ha, 0 to 100 scale, 0 is no effect and 100 is complete control

## O=C1NCC(c2cccc(C(F)(F)F)c2)C1C(=O)Nc1cccc(Cl)c1F (stereo not shown) [Compound 316]
foxtail, giant; [1]
  Plant response rating, Foxtail, Giant: 5
foxtail, giant; [2]
  Plant response rating, Foxtail, Giant: 5
foxtail, giant; [3]
  Plant response rating, Foxtail, Giant: 85
foxtail, giant; [4]
  Plant response rating, Foxtail, Giant: 85
foxtail, giant; [5]
  Foxtail, Giant plant response rating: 85
foxtail, giant; [6]
  Foxtail, Giant plant response rating: 90
foxtail, giant; [7]
  Plant response rating, Foxtail, Giant: 90
foxtail, giant; Preemergence, 250 g ai/ha
  Plant response rating (scale of 0 to 100), Foxtail, Giant: 95
lambsquarters; [1]
  Plant response rating, Lambsquarters: 55
lambsquarters; [2]
  Plant response rating, Lambsquarters: 65
lambsquarters; [3]
  Plant response rating, Lambsquarters: 40
lambsquarters; [4]
  Plant response rating, Lambsquarters: 65
lambsquarters; [5]
  Lambsquarters plant response rating: 0
lambsquarters; [6]
  Lambsquarters plant response rating: 20
lambsquarters; [7]
  Plant response rating, Lambsquarters: 65
lambsquarters; Preemergence, 250 g ai/ha
  Plant response rating (scale of 0 to 100), Lambsquarters: 65
Giant foxtail; [8]
  Plant response rating, Foxtail, Giant: 90
Giant foxtail; [9]
  Plant response rating, Foxtail, Giant: 90
Giant foxtail; [10]
  Plant response rating, Foxtail, Giant: 90
Giant foxtail; [11]
  Foxtail, Giant plant response rating: 90
pigweed; [1]
  Plant response rating, Pigweed: 15
pigweed; [2]
  Plant response rating, Pigweed: 50
pigweed; [3]
  Plant response rating, Pigweed: 60
pigweed; [4]
  Plant response rating, Pigweed: 75
pigweed; [5]
  Pigweed plant response rating: 25
pigweed; [6]
  Pigweed plant response rating: 25
pigweed; [7]
  Plant response rating, Pigweed: 45
galium; [12]
  Galium plant response rating: 0
galium; [13]
  Galium plant response rating: 0
galium; scale 0 to 100
  Plant response rating, Galium: 0
galium
  Plant response rating (scale of 0 to 100), Galium: 90
Wheat (winter wheat); [1]
  Plant response rating, Wheat: 0
Wheat (winter wheat); [2]
  Plant response rating, Wheat: 0
Wheat (winter wheat); [3]
  Plant response rating, Wheat: 0
Wheat (winter wheat); [4]
  Plant response rating, Wheat: 0
Wheat (winter wheat); [6]
  Wheat plant response rating: 5
Wheat (winter wheat); [7]
  Plant response rating, Wheat: 40
barnyardgrass; [1]
  Plant response rating, Barnyardgrass: 10
barnyardgrass; [2]
  Plant response rating, Barnyardgrass: 35
barnyardgrass; [3]
  Plant response rating, Barnyardgrass: 60
barnyardgrass; [4]
  Plant response rating, Barnyardgrass: 70
barnyardgrass; [5]
  Barnyardgrass plant response rating: 85
barnyardgrass; [6]
  Barnyardgrass plant response rating: 85
barnyardgrass; [14]
  Plant response rating, Barnyardgrass: 90
barnyardgrass; Preemergence, 250 g ai/ha
  Plant response rating (scale of 0 to 100; 0 is no effect, 100 is complete control), Barnyardgrass: 90
morningglory; [1]
  Plant response rating, Morningglory: 55
morningglory; [2]
  Plant response rating, Morningglory: 0
morningglory; [3]
  Plant response rating, Morningglory: 10
morningglory; [4]
  Plant response rating, Morningglory: 10
morningglory; [5]
  Morningglory plant response rating: 0
morningglory; [6]
  Morningglory plant response rating: 0
morningglory; [7]
  Plant response rating, Morningglory: 25
morningglory; Preemergence, 250 g ai/ha
  Plant response rating (scale of 0 to 100), Morningglory: 35
johnsongrass; [1]
  Plant response rating, Johnsongrass: 0
johnsongrass; [2]
  Plant response rating, Johnsongrass: 0
johnsongrass; [3]
  Plant response rating, Johnsongrass: 0
johnsongrass; [4]
  Plant response rating, Johnsongrass: 0
johnsongrass; [5]
  Johnsongrass plant response rating: 50
johnsongrass; [6]
  Johnsongrass plant response rating: 75
johnsongrass; [7]
  Plant response rating, Johnsongrass: 75
johnsongrass; Preemergence, 250 g ai/ha
  Plant response rating (scale of 0 to 100), Johnsongrass: 85
wheat; [8]
  Plant response rating, Wheat: 20
wheat; [9]
  Plant response rating, Wheat: 40

## O=C1NCC(c2cccc(C(F)(F)F)c2)C1C(=O)Nc1cccc(F)c1F (stereo not shown) [Compound 241]
foxtail, giant; [5]
  Foxtail, Giant plant response rating: 90
foxtail, giant; [6]
  Foxtail, Giant plant response rating: 95
foxtail, giant; [14]
  Plant response rating, Foxtail, Giant: 95
foxtail, giant; Preemergence, 250 g ai/ha
  Plant response rating (scale of 0 to 100), Foxtail, Giant: 95
lambsquarters; [5]
  Lambsquarters plant response rating: 0
lambsquarters; [6]
  Lambsquarters plant response rating: 0
lambsquarters; [14]
  Plant response rating, Lambsquarters: 10
lambsquarters; Preemergence, 250 g ai/ha
  Plant response rating (scale of 0 to 100), Lambsquarters: 100
Giant foxtail; [15]
  Plant response rating, Foxtail, Giant: 80
Giant foxtail; [9]
  Plant response rating, Foxtail, Giant: 90
Giant foxtail; [10]
  Plant response rating, Foxtail, Giant: 90
Giant foxtail; [16]
  Plant response rating, Foxtail, Giant: 90
pigweed; [5]
  Pigweed plant response rating: 0
pigweed; [6]
  Pigweed plant response rating: 0
pigweed; [14]
  Plant response rating, Pigweed: 25
pigweed; Preemergence, 250 g ai/ha
  Plant response rating (scale of 0 to 100), Pigweed: 70
galium; [12]
  Galium plant response rating: 20
galium; [13]
  Galium plant response rating: 80
galium; scale 0 to 100 (0 no effect, 100 complete control)
  Plant response rating, Galium: 85
galium
  Plant response rating (scale of 0 to 100), Galium: 85
Wheat (winter wheat); [5]
  Wheat plant response rating: 0
Wheat (winter wheat); [6]
  Wheat plant response rating: 45
Wheat (winter wheat); [14]
  Plant response rating, Wheat: 90
Wheat (winter wheat); Preemergence, 250 g ai/ha
  Plant response rating (scale of 0 to 100), Wheat: 80
barnyardgrass; [5]
  Barnyardgrass plant response rating: 90
barnyardgrass; Preemergence, 62 g ai/ha, scale 0 to 100
  Plant response rating, Barnyardgrass: 95
barnyardgrass; [14]
  Plant response rating, Barnyardgrass: 95
barnyardgrass; Preemergence, 250 g ai/ha
  Plant response rating (scale of 0 to 100; 0 is no effect, 100 is complete control), Barnyardgrass: 95
morningglory; [5]
  Morningglory plant response rating: 0
morningglory; [6]
  Morningglory plant response rating: 0
morningglory; [14]
  Plant response rating, Morningglory: 10
morningglory; Preemergence, 250 g ai/ha
  Plant response rating (scale of 0 to 100), Morningglory: 30
johnsongrass; [5]
  Johnsongrass plant response rating: 85
johnsongrass; [6]
  Johnsongrass plant response rating: 80
johnsongrass; [14]
  Plant response rating, Johnsongrass: 85
johnsongrass; Preemergence, 250 g ai/ha
  Plant response rating (scale of 0 to 100), Johnsongrass: 90
wheat; [15]
  Plant response rating, Wheat: 30
wheat; [9]
  Plant response rating, Wheat: 70
wheat; [10]
  Plant response rating, Wheat: 20
wheat; [16]
  Plant response rating, Wheat: 30

## Cc1cccc(NC(=O)C2C(=O)NCC2c2cccc(C(F)(F)F)c2)c1 (stereo not shown) [Compound 317]
foxtail, giant; [1]
  Plant response rating, Foxtail, Giant: 0
foxtail, giant; [2]
  Plant response rating, Foxtail, Giant: 0
foxtail, giant; [3]
  Plant response rating, Foxtail, Giant: 0
foxtail, giant; [4]
  Plant response rating, Foxtail, Giant: 50
foxtail, giant; [5]
  Foxtail, Giant plant response rating: 80
foxtail, giant; [6]
  Foxtail, Giant plant response rating: 90
foxtail, giant; [7]
  Plant response rating, Foxtail, Giant: 90
foxtail, giant; Preemergence, 250 g ai/ha
  Plant response rating (scale of 0 to 100), Foxtail, Giant: 95
lambsquarters; [1]
  Plant response rating, Lambsquarters: 0
lambsquarters; [2]
  Plant response rating, Lambsquarters: 0
lambsquarters; [3]
  Plant response rating, Lambsquarters: 25
lambsquarters; [4]
  Plant response rating, Lambsquarters: 25
lambsquarters; [5]
  Lambsquarters plant response rating: 0
lambsquarters; [6]
  Lambsquarters plant response rating: 0
lambsquarters; [7]
  Plant response rating, Lambsquarters: 0
lambsquarters; Preemergence, 250 g ai/ha
  Plant response rating (scale of 0 to 100), Lambsquarters: 10
Giant foxtail; [8]
  Plant response rating, Foxtail, Giant: 80
Giant foxtail; [9]
  Plant response rating, Foxtail, Giant: 90
Giant foxtail; [10]
  Plant response rating, Foxtail, Giant: 90
Giant foxtail; [11]
  Foxtail, Giant plant response rating: 90
pigweed; [1]
  Plant response rating, Pigweed: 5
pigweed; [2]
  Plant response rating, Pigweed: 5
pigweed; [3]
  Plant response rating, Pigweed: 5
pigweed; [4]
  Plant response rating, Pigweed: 5
pigweed; [5]
  Pigweed plant response rating: 0
pigweed; [6]
  Pigweed plant response rating: 0
pigweed; [7]
  Plant response rating, Pigweed: 0
galium; [12]
  Galium plant response rating: 0
galium; [13]
  Galium plant response rating: 0
galium; scale 0 to 100
  Plant response rating, Galium: 0
galium
  Plant response rating (scale of 0 to 100), Galium: 0
Wheat (winter wheat); [1]
  Plant response rating, Wheat: 0
Wheat (winter wheat); [2]
  Plant response rating, Wheat: 0
Wheat (winter wheat); [3]
  Plant response rating, Wheat: 0
Wheat (winter wheat); [4]
  Plant response rating, Wheat: 0
Wheat (winter wheat); [6]
  Wheat plant response rating: 0
Wheat (winter wheat); [7]
  Plant response rating, Wheat: 0
barnyardgrass; [1]
  Plant response rating, Barnyardgrass: 0
barnyardgrass; [2]
  Plant response rating, Barnyardgrass: 0
barnyardgrass; [3]
  Plant response rating, Barnyardgrass: 25
barnyardgrass; [4]
  Plant response rating, Barnyardgrass: 70
barnyardgrass; [5]
  Barnyardgrass plant response rating: 90
barnyardgrass; [6]
  Barnyardgrass plant response rating: 90
barnyardgrass; [14]
  Plant response rating, Barnyardgrass: 95
barnyardgrass; Preemergence, 250 g ai/ha
  Plant response rating (scale of 0 to 100; 0 is no effect, 100 is complete control), Barnyardgrass: 95
morningglory; [1]
  Plant response rating, Morningglory: 0
morningglory; [2]
  Plant response rating, Morningglory: 0
morningglory; [3]
  Plant response rating, Morningglory: 0
morningglory; [4]
  Plant response rating, Morningglory: 10
morningglory; [5]
  Morningglory plant response rating: 25
morningglory; [6]
  Morningglory plant response rating: 0
morningglory; [7]
  Plant response rating, Morningglory: 0
morningglory; Preemergence, 250 g ai/ha
  Plant response rating (scale of 0 to 100), Morningglory: 0
johnsongrass; [1]
  Plant response rating, Johnsongrass: 0
johnsongrass; [2]
  Plant response rating, Johnsongrass: 0
johnsongrass; [3]
  Plant response rating, Johnsongrass: 0
johnsongrass; [4]
  Plant response rating, Johnsongrass: 5
johnsongrass; [5]
  Johnsongrass plant response rating: 0
johnsongrass; [6]
  Johnsongrass plant response rating: 0
johnsongrass; [7]
  Plant response rating, Johnsongrass: 0
johnsongrass; Preemergence, 250 g ai/ha
  Plant response rating (scale of 0 to 100), Johnsongrass: 30
wheat; [8]
  Plant response rating, Wheat: 0
wheat; [9]
  Plant response rating, Wheat: 20
